In US12655173B2, “Hybrid amide derivatives of amphotericin B” (priority 2020, dated 2026):
In brackets after ≈: the same amount, converted by molar mass. Where two headings read alike, the source gives them in different places.

Assays:
Cryptococcus gattii = assay: MIC against yeasts; type: cell-based
A. terreus = assay: MIC against moulds; type: cell-based
Coccidioides posadasii = assay: microbe, parasite or virus in culture; type: cell-based; conditions: for MIC Coccidioides posadasii: 6 isolates, AmB (AmBisome)
[1] = Blood plasma stability, human; type: in vitro ADME
Rhodotorula sp. = assay: MIC against yeasts; type: cell-based; conditions: 6 isolates, Table 3
A. lentulus = assay: MIC against moulds; type: cell-based; conditions: 6 isolates, AmB (AmBisome)
Coccidioides immitis = assay: microbe, parasite or virus in culture; type: cell-based; conditions: for MIC Coccidioides immitis: 6 isolates, AmB (AmBisome)
Histoplasma capsulatum = assay: microbe, parasite or virus in culture; type: cell-based; conditions: for MIC Histoplasma capsulatum: 6 isolates, AmB (AmBisome)
Fonsecaeu sp. = assay: MIC against moulds; type: cell-based; conditions: 6 isolates; AmB (AmBisome)
Licht. Corymbifera = assay: MIC against moulds; type: cell-based; conditions: 6 isolates, AmB (AmBisome)
yeast = assay: MICavg / Average MIC against yeasts; type: cell-based; conditions: for MIC: 46 isolates, Table 3
[2] = Liver microsome stability; conditions: rat, dog, monkey; for Liver microsome (T1/2, min): Mouse, human: All species
[3] = tested on: erythrocytes (whole human blood); assay: MHC hemolysis assay; type: cell-based
Description: MHC (FIG. 1B and FIG. 10): The protocol for the hemolysis assay was adapted from the report of Paquet and coworkers (Chem. Eur. J. 2008, 14, 2465-2481). Whole human blood (sodium heparin) was purchased from Bioreclamation LLC (Westbury, NY) and stored at 4° C. and used within two days of receipt. To a 2.0 mL appendorf tube, 1 mL of whole human blood was added and centrifuged at 10,000 g for 2 minutes. The supernatant was removed and the erythrocyte pellet was washed with 1 mL of sterile saline and centrifuged at 10,000 g for 2 minutes. The saline wash was repeated for a total of three washes. The erythrocyte pellet was suspended in 1 mL of RBC buffer (10 mM NaH2PO4, 150 mM NaCl, 1 mM MgCl2, pH 7.4) to form the erythrocyte stock suspension.
Compounds were prepared as >15 mM stock solutions in DMSO and serially diluted to the following concentrations with DMSO: 7689, 5126, 2563, 2050, 1538, 1025, 769, 513, 384, 256, 205, 154, 103, 77, 51, 26 μM. To a 0.2 mL PCR tube, 24 μL of RBC buffer and 1 μL of compound stock solution were added, which gave final concentrations of 500, 300, 200, 100, 80, 60, 40, 30, 20, 15, 10, 8, 6, 4, 3, 2, 1 μM. Positive and negative controls were prepared by adding 1 μL of DMSO to MilliQ water or RBC buffer, respectively to 0.2 mL PCR tube. To each PCR tube, 0.63 μL. of the erythrocyte stock suspension was added and mixed by inversion. The samples were incubated at 37° C. for 2 hours. The samples were mixed by inversion and centrifuged at 10,000 g for 2 minutes. 15 μL of the supernatant from each sample was added to a 384-well place. Absorbances were read at 540 nm using a Biotek H1 Synergy Hybrid Reader (Winooski, VT), Experiments were performed in triplicate and the reported MHC represents an average of three experiments.

A. flavus = assay: MIC against moulds; type: cell-based
Mucor janssenii = assay: MIC against moulds; type: cell-based; conditions: 6 isolates, AmB (AmBisome)
[4] = tested on: Purpureocillium lilacinum; assay: MIC against rare moulds resistant to AmB; type: cell-based; conditions: 6 isolates, Table 4
Blastomyces dermatitidis = assay: MIC against moulds; type: cell-based; conditions: 5 isolates, AmB (AmBisome)
Talaromyces marneffei = assay: MIC against moulds; type: cell-based; conditions: 6 isolates, AmB (AmBisome)
[5] = UV-Vis sterol binding assay
Description: UV-Vis is Binding Assay (FIG. 1A): The protocol for the sterol binding assay (UV-Vis) was developed in our lab. Compounds were dissolved in DMSO at a final concentration of 1 mM. Sterol were first dissolved in CHCl3 (>200 mM) and then diluted to 1 mM concentration with DMSO To synthesize the complex 1 ul of compound solution was taken in a clean eppendorf tube (2 ml) and sterol solution (volume depends on the stoichiometry) was added to it and the volume was made up to 20 ul with DMSO. 0.98 ml of PBS buffer was added to the Eppendorf tube and mixed properly. The absorbance of the solution was measured after 30 mins of incubation.

Licht. Ramosa = assay: MIC against moulds; type: cell-based; conditions: 6 isolates; AmB (AmBisome)
Candida parapsilosis = assay: MIC against yeasts; type: cell-based
A. niger = assay: MIC against moulds; type: cell-based; conditions: 6 isolates, AmB (AmBisome)
Fusarium oxysporum = assay: MIC against moulds; type: cell-based; conditions: 6 isolates, AmB (AmBisome)
A. fumigatus = assay: MIC against moulds; type: cell-based
A. tubingensis = assay: MIC against moulds; type: cell-based; conditions: for MIC A. tubingensis: 6 isolates, AmB (AmBisome)
Candida auris = assay: MIC against yeasts; type: cell-based
Apophysomyces sp. = assay: MIC against moulds; type: cell-based; conditions: 3 isolates; AmB (AmBisome)
[6] = 10 isolates, Table 3, read-out: MIC Cryptococcus gattii

`C[C@@H]1[C@H](O)[C@@H](C)/C=C/C=C/C=C/C=C/C=C/C=C/C=C/[C@H](OC2O[C@H](C)[C@@H](O)[C@H](N)[C@@H]2O)C[C@@H]2O[C@](O)(C[C@@H](O)C[C@@H](O)[C@H](O)CC[C@@H](O)C[C@@H](O)CC(=O)O[C@H]1C)C[C@H](O)[C@H]2C(=O)O` (stereo partly drawn) [AmB, Amphotericin B] gave an MIC (Cryptococcus gattii; Cryptococcus gattii, 1 isolate, Table 3A, read-out: MIC Cryptococcus gatti) of 1 µM (≈ 0.924 µg/mL), an MIC (Cryptococcus gattii; Cryptococcus gattii, 10 isolates, Table 3, read-out: MIC Cryptococcus gattii) of 0.75 µM (≈ 0.693 µg/mL) and an MIC (A. terreus; Aspergillus terreus, 5 isolates, Table 2A) of 7 µM (≈ 6.47 µg/mL). The MIC (A. terreus; Aspergillus terreus, 6 isolates, AmB (AmBisome)) was 3 µM (≈ 2.77 µg/mL), the MIC (Coccidioides posadasii; Coccidioides posadasii, read-out: MIC Coccidioides posadasii) was 0.06 µM (≈ 0.0554 µg/mL) and the half-life ([1]; human, blood plasma, read-out: Blood Plasma Stability (T1/2, min) Human) was > 289 min. For the same molecule, the MIC (Rhodotorula sp.; Rhodotorula) was 1 µM (≈ 0.924 µg/mL), the MIC (A. lentulus; Aspergillus lentulus) was 3.75 µM (≈ 3.47 µg/mL) and the MIC (Coccidioides immitis; Coccidioides immitis, read-out: MIC Coccidioides immitis) was 0.125 µM (≈ 0.116 µg/mL). For the same molecule, the MIC (Histoplasma capsulatum; Histoplasma capsulatum, read-out: MIC Histoplasma capsulatum) was 0.06 µM (≈ 0.0554 µg/mL), the MIC (Fonsecaeu sp.) was < 0.03 µM and the MIC (Licht. Corymbifera; Lichtheimia corymbifera) was 0.23 µM (≈ 0.213 µg/mL). The “MICavg yeast (5 strains)” value (yeast) was 0.23, the MIC (yeast) was 0.9 µM (≈ 0.832 µg/mL) and the “MICavg yeast (46 strains)” value (yeast) was 0.9. For the same molecule, the half-life ([2]; mouse, human, liver microsomes) was > 145 min, the MHC [3] was 8.4 and the MIC (A. flavus; Aspergillus flavus, 3 isolates, Table 2A) was 4 µM (≈ 3.7 µg/mL). For the same molecule, the MIC (A. flavus; Aspergillus flavus, 6 isolates, AmB (AmBisome)) was 1.16 µM (≈ 1.07 µg/mL), the MIC (Mucor janssenii; Mucor janssenii) was 0.06 µM (≈ 0.0554 µg/mL) and the MIC ([4]; Purpureocillium lilacinum) was > 16 µM. The MIC (Blastomyces dermatitidis; Blastomyces dermatitidis) was < 0.03 µM, the MIC (Talaromyces marneffei; Talaromyces marneffei) was 0.09 µM (≈ 0.0832 µg/mL) and the “Binds Cholesterol” value [5] was “Yes”. For the same molecule, the MIC (Licht. Ramosa) was 0.15 µM (≈ 0.139 µg/mL), the MIC (Candida parapsilosis; Lodderomyces parapsilosis, 6 isolates, Table 3A) was 0.5 µM (≈ 0.462 µg/mL) and the MIC (Candida parapsilosis; Lodderomyces parapsilosis, 8 isolates, Table 3) was 1.1 µM (≈ 1.02 µg/mL). It also gave an MIC (A. niger; Aspergillus niger) of 0.21 µM (≈ 0.194 µg/mL), an MIC (Fusarium oxysporum; Fusarium oxysporum) of 1.5 µM (≈ 1.39 µg/mL) and an MIC (A. fumigatus; Aspergillus fumigatus, 5 isolates, AmB (AmBisome)) of 0.71 µM (≈ 0.656 µg/mL). For the same molecule, the MIC (A. fumigatus; Aspergillus fumigatus, 16 isolates, Table 2A) was 2.1 µM (≈ 1.94 µg/mL), the MIC (A. tubingensis; Aspergillus tubingensis, read-out: MIC A. tubingensis) was 0.125 µM (≈ 0.116 µg/mL) and the MIC (Candida auris; Candidozyma auris, 10 isolates, Table 3) was 1.2 µM (≈ 1.11 µg/mL). For the same molecule, the MIC (Candida auris; Candidozyma auris, 15 isolates, Table 3A) was 2.9 µM (≈ 2.68 µg/mL) and the MIC (Apophysomyces sp.) was 0.75 µM (≈ 0.693 µg/mL).
In the case of `CC1C=CC=CC=CC=CC=CC=CC=CC(OC2OC(C)C(O)C(N)C2O)CC2OC(O)(CC(O)CC(O)C(O)CCC(O)CC(O)CC(=O)OC(C)C(C)C1O)CC(O)C2C(=O)NC(CO)CO` (stereo not drawn) [Compound 1], the MIC (Cryptococcus gattii; [6]) is reported as 1.6 µM (≈ 1.6 µg/mL), the MIC (A. terreus; 6 isolates, AmB (AmBisome)) is reported as 2 µM (≈ 1.99 µg/mL) and the “MIC Coccidioides posadasii” value (Coccidioides posadasii) is reported as 0.25 µM (≈ 0.249 µg/mL). The “Blood Plasma Stability (T1/2, min) Human” value [1] was >289; >289 min, the MIC (Rhodotorula sp.) was 2.8 µM (≈ 2.79 µg/mL) and the MIC (A. lentulus) was 2.33 µM (≈ 2.32 µg/mL). The “MIC Coccidioides immitis” value (Coccidioides immitis) was 0.27 µM (≈ 0.269 µg/mL), the “MIC Histoplasma capsulatum” value (Histoplasma capsulatum) was 0.06 µM (≈ 0.0598 µg/mL) and the MIC (Fonsecaeu sp.) was <0.03 µM. For the same molecule, the MIC (Licht. Corymbifera) was 0.5 µM (≈ 0.499 µg/mL), the “MICavg yeast (5 strains)” value (yeast) was 0.53 and the MIC (yeast) was 2.1 µM (≈ 2.09 µg/mL). The “MICavg yeast (46 strains)” value (yeast) was 2.1, the “Liver microsome (T1/2, min)” value [2] was >145 min and the MHC [3] was >100. For the same molecule, the MIC (A. flavus; 6 isolates, AmB (AmBisome)) was 1.67 µM (≈ 1.67 µg/mL), the MIC (Mucor janssenii) was 0.5 µM (≈ 0.499 µg/mL) and the MIC [4] was >16 µM. For the same molecule, the MIC (Blastomyces dermatitidis) was 0.25 µM (≈ 0.249 µg/mL), the MIC (Talaromyces marneffei) was 0.12 µM (≈ 0.12 µg/mL) and the “Binds Cholesterol” value [5] was “No”. It also gave an MIC (Licht. Ramosa) of 0.58 µM (≈ 0.578 µg/mL), an MIC (Candida parapsilosis; 8 isolates, Table 3) of 1.8 µM (≈ 1.79 µg/mL) and an MIC (A. niger) of 0.5 µM (≈ 0.499 µg/mL). The MIC (Fusarium oxysporum) was 6 µM (≈ 5.98 µg/mL), the MIC (A. fumigatus; 5 isolates, AmB (AmBisome)) was 1.33 µM (≈ 1.33 µg/mL) and the “MIC A. tubingensis” value (A. tubingensis) was 0.83 µM (≈ 0.828 µg/mL). The MIC (Candida auris; 10 isolates, Table 3) was 2.6 µM (≈ 2.59 µg/mL) and the MIC (Apophysomyces sp.) was 6.8 µM (≈ 6.78 µg/mL).
With `CC1C=CC=CC=CC=CC=CC=CC=CC(OC2OC(C)C(O)C(N)C2O)CC2OC(O)(CC(O)CC(O)C(O)CCC(O)CC(O)CC(=O)OC(C)C(C)C1O)CC(O)C2C(=O)NC(CO)(CO)CO` (stereo not drawn) [Compound 2] the MIC (Cryptococcus gattii; [6]) was 2 µM (≈ 2.05 µg/mL), the MIC (A. terreus; 6 isolates, AmB (AmBisome)) was 2.3 µM (≈ 2.36 µg/mL) and the “MIC Coccidioides posadasii” value (Coccidioides posadasii) was 0.5 µM (≈ 0.514 µg/mL). For the same molecule, the “Blood Plasma Stability (T1/2, min) Human” value [1] was > 289 min, the MIC (Rhodotorula sp.) was 3.7 µM (≈ 3.8 µg/mL) and the MIC (A. lentulus) was 4.33 µM (≈ 4.45 µg/mL). For the same molecule, the “MIC Coccidioides immitis” value (Coccidioides immitis) was 0.27 µM (≈ 0.277 µg/mL), the “MIC Histoplasma capsulatum” value (Histoplasma capsulatum) was 0.08 µM (≈ 0.0822 µg/mL) and the MIC (Fonsecaeu sp.) was <0.03 µM. For the same molecule, the MIC (Licht. Corymbifera) was 1 µM (≈ 1.03 µg/mL), the “MICavg yeast (5 strains)” value (yeast) was 0.41 and the MIC (yeast) was 2.3 µM (≈ 2.36 µg/mL). For the same molecule, the “MICavg yeast (46 strains)” value (yeast) was 2.3, the “Liver microsome (T1/2, min)” value [2] was >145 min and the MHC [3] was >60. For the same molecule, the MIC (A. flavus; 6 isolates, AmB (AmBisome)) was 1.67 µM (≈ 1.72 µg/mL), the MIC (Mucor janssenii) was 0.92 µM (≈ 0.945 µg/mL) and the MIC [4] was >16 µM. The MIC (Blastomyces dermatitidis) was 0.6 µM (≈ 0.616 µg/mL), the MIC (Talaromyces marneffei) was 0.21 µM (≈ 0.216 µg/mL) and the “Binds Cholesterol” value [5] was “No”. For the same molecule, the MIC (Licht. Ramosa) was 0.75 µM (≈ 0.77 µg/mL), the MIC (Candida parapsilosis; 8 isolates, Table 3) was 1.6 µM (≈ 1.64 µg/mL) and the MIC (A. niger) was 0.75 µM (≈ 0.77 µg/mL). The MIC (Fusarium oxysporum) was 13.3 µM (≈ 13.7 µg/mL), the MIC (A. fumigatus; 5 isolates, AmB (AmBisome)) was 2.33 µM (≈ 2.39 µg/mL) and the “MIC A. tubingensis” value (A. tubingensis) was 0.92 µM (≈ 0.945 µg/mL). It also gave an MIC (Candida auris; 10 isolates, Table 3) of 2.6 µM (≈ 2.67 µg/mL) and an MIC (Apophysomyces sp.) of 8.3 µM (≈ 8.53 µg/mL).
